In the data set the test system is rodent lifetime carcinogenesis bioassay, tumor incidence TD50. The experiment in a line: chronic cancer bioassays in animals – CPDB, compiled studies (AID 1745844). Conditions: in feed, dosed 104 weeks, study length 104 weeks.

The source made the active and inactive calls. No rule for the calls is given here.

On to `OC(Cn1cncn1)(Cn1cncn1)c1ccc(F)cc1F`, for which the carcinogen call is “negative (inactive)” (mouse, strain Charles River CD1, females, site: any site (literature study), lesion: several types, types named in the paper); “negative (inactive)” (mouse, strain Charles River CD1, females, site: liver, lesion: hepatocellular carcinoma); “negative (inactive)” (mouse, strain Charles River CD1, males, site: liver, lesion: hepatocellular carcinoma); “negative (inactive)” (rat, strain Charles River CD (Sprague-Dawley), females, site: any site (literature study), lesion: several types, types named in the paper); “negative (inactive)” (rat, strain Charles River CD (Sprague-Dawley), females, site: liver, lesion: hepatocellular carcinoma); “negative (inactive)” (rat, strain Charles River CD (Sprague-Dawley), females, site: mammary gland, lesion: carcinoma). Also, the carcinogen call is “negative (inactive)” (rat, strain Charles River CD (Sprague-Dawley), females, site: mammary gland, lesion: fibroadenoma); “negative (inactive)” (rat, strain Charles River CD (Sprague-Dawley), females, site: mammary gland, lesion: several types, types named in the paper); “negative (inactive)” (rat, strain Charles River CD (Sprague-Dawley), males, site: adrenal medulla, lesion: pheochromocytoma); “negative (inactive)” (rat, strain Charles River CD (Sprague-Dawley), males, site: any site (literature study), lesion: several types, types named in the paper). Moreover, the TD50 (in general, the 50% point of the dose-response relation for the toxic effect studied) is, setting by setting: (mouse, strain Charles River CD1, females, site: liver, lesion: hepatocellular adenoma) 129 mg/kg/day (inactive); (mouse, strain Charles River CD1, males, site: any site (literature study), lesion: several types, types named in the paper) 239 mg/kg/day (inactive); (mouse, strain Charles River CD1, males, site: liver, lesion: hepatocellular adenoma) 144 mg/kg/day (inactive); (rat, strain Charles River CD (Sprague-Dawley), females, site: liver, lesion: hepatocellular adenoma) 298 mg/kg/day (inactive); (rat, strain Charles River CD (Sprague-Dawley), females, site: mammary gland, lesion: adenoma) 412 mg/kg/day (inactive); (rat, strain Charles River CD (Sprague-Dawley), males, site: liver, lesion: hepatocellular adenoma) 80.7 mg/kg/day.

The values are drawn from PubChem BioAssay AID1745844 (Carcinogenic Potency Database (CPDB), 2022).
